Calls of active or inactive are those of the source. How the calls were made is not given here.
Assays:
[1] = molecular target: Porphobilinogen deaminase (Homo sapiens) (UniProt P08397); conditions: at 100 µM
Description: (§1) Compound was evaluated for the inhibition of human HMBS at 100uM

[2] = molecular target: Ferrochelatase, mitochondrial (Homo sapiens) (UniProt P22830); conditions: at 10 µM
Description: (§2) Compound was evaluated for the inhibition of human FECH at 10uM

[3] = molecular target: T1, Porphobilinogen deaminase (Homo sapiens) (UniProt P08397); conditions: at 100 µM; remark: listed apart in the source
T1 sequence (whole entry): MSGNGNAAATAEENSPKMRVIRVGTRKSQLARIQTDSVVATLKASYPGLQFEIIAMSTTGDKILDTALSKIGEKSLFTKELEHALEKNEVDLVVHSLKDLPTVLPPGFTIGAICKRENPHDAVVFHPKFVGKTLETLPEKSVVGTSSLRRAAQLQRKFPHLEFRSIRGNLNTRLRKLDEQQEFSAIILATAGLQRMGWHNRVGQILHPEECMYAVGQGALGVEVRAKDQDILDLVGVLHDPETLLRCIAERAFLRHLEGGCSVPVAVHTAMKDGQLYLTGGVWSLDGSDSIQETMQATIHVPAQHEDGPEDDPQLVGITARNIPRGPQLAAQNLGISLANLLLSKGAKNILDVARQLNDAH
Description: as §1

[4] = molecular target: T2, Ferrochelatase, mitochondrial (Homo sapiens) (UniProt P22830); conditions: at 10 µM; remark: listed apart in the source
T2 sequence (whole entry): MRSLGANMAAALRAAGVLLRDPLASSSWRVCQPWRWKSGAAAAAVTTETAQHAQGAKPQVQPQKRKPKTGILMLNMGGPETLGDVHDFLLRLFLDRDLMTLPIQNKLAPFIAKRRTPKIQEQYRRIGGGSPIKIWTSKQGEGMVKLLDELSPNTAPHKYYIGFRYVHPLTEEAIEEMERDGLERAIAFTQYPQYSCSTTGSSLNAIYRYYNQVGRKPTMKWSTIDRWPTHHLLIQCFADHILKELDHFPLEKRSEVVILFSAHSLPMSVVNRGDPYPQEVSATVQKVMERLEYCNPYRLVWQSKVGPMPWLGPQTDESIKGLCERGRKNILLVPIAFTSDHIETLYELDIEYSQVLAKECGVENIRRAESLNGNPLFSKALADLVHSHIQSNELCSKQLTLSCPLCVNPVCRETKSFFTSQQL
Description: as §2

Compound: MMV688978
- inhibition [1]: inactive
- inhibition [2]: inactive

Compound: OCCc1ccc(Nc2nccc(-c3nnc4ccccn34)n2)cc1
- inhibition [3]: inactive
- inhibition [4]: inactive

Compound: O=C(NCCN1CCCC1)c1cc(NCCCCN2CCC(F)(F)CC2)nc2ccc(Cl)cc12
- inhibition [3]: inactive
- inhibition [4]: inactive

Compound: CN1CCCN(C(c2ccccc2)c2ccc(Cl)cc2)CC1 (stereo unspecified)
- inhibition [3]: inactive
- inhibition [4]: inactive

Compound: NCCCC(N)(C(=O)O)C(F)F (stereo unspecified)
- inhibition [3]: inactive
- inhibition [4]: inactive

Compound: COc1ccc(Cl)cc1NC(=O)CN(C)C(=O)c1cnn(-c2ccccc2)n1
- inhibition [3]: inactive
- inhibition [4]: inactive

Compound: O=C(Nc1ccccc1-c1nc2c(C(=O)O)cccc2o1)c1ccccc1
- inhibition [3]: inactive
- inhibition [4]: inactive

Compound: NS(=O)(=O)c1cccc(-c2ccc3ncc(N4CCOCC4)nc3c2)c1
- inhibition [3]: inactive
- inhibition [4]: inactive

Compound: O=C(Nc1ccc(F)c(-c2nc3cc(-c4ccccc4)cnc3[nH]2)c1)N1CCCC1
- inhibition [3]: inactive
- inhibition [4]: inactive

Compound: O=C(NCCN1CCCC1)c1cc(NCCN2CCOCC2)nc2ccc(Cl)cc12
- inhibition [3]: inactive
- inhibition [4]: inactive

Compound: O=[N+]([O-])c1cn2c(n1)OC[C@@H](OCc1ccc(OC(F)(F)F)cc1)C2
- inhibition [3]: inactive
- inhibition [4]: inactive

Compound: COc1cc(NC(=O)Cc2nn(C)c(=O)c3ccccc23)ccc1Cl
- inhibition [3]: inactive
- inhibition [4]: inactive

Compound: Cc1cc(OCC(=O)NCc2ccccc2)c2cc(Br)ccc2n1
- inhibition [3]: inactive
- inhibition [4]: inactive

Compound: Nc1ncnc2c1c(Cc1cccc3ccccc13)nn2CC1CCNCC1
- inhibition [3]: inactive
- inhibition [4]: inactive

Compound: CC(=O)Oc1ccccc1C(=O)Nc1ncc([N+](=O)[O-])s1
- inhibition [3]: inactive
- inhibition [4]: inactive

Compound: COc1ccc(S(=O)(=O)Nc2ccc(CN3CCN(C(=O)c4cccc(C#N)c4)CC3)cc2)cc1
- inhibition [3]: inactive
- inhibition [4]: inactive

Compound: COc1ccc(OC)c(NCc2ccc3nc(N)nc(N)c3c2Cl)c1
- inhibition [3]: inactive
- inhibition [4]: inactive

Compound: CCc1cc(=O)n(C)c(SC(C)C(=O)Nc2ccc(F)cc2)n1 (stereo unspecified)
- inhibition [3]: inactive
- inhibition [4]: inactive

Compound: CC(C)C(NC(=O)Cc1cccc2ccccc12)C(=O)Nc1cccc(C#N)c1 (stereo unspecified)
- inhibition [3]: inactive
- inhibition [4]: inactive

Compound: COC(=O)c1c(NC(=O)c2cc3ccccc3oc2=O)sc2c1CCN(Cc1ccccc1)C2
- inhibition [3]: inactive
- inhibition [4]: inactive

Compound: Cc1ccc(NC(=O)CC2COc3ccccc3O2)cc1Cl (stereo unspecified)
- inhibition [3]: inactive
- inhibition [4]: inactive

Compound: CO[C@H]1/C=C\O[C@@]2(C)Oc3c(C)c(O)c4c(O)c(/c(=C/NN5CCN(C)CC5)c(O)c4c3C2=O)=N\C(=O)/C(C)=C\C=C/[C@H](C)[C@H](O)[C@@H](C)[C@@H](O)[C@@H](C)[C@H](OC(C)=O)[C@@H]1C
- inhibition [3]: inactive
- inhibition [4]: inactive

Compound: CN1CCN(c2nccc3[nH]c(-c4cccc(F)c4)cc23)CC1
- inhibition [3]: inactive
- inhibition [4]: inactive

Compound: c1cc(C2=NCCN2)cc(-c2cc(-c3ccc(C4=NCCN4)cc3)no2)c1
- inhibition [3]: inactive
- inhibition [4]: inactive

Compound: Cc1cccc(C(=O)Nc2ccnc(N(C)C3CCN(CC(C)C)CC3)c2)c1
- inhibition [3]: inactive
- inhibition [4]: inactive

Compound: CCc1ccccc1-n1c(C)cn2c3c(=O)n(C(C(=O)OC)C(C)C)c(=O)n(C)c3nc12 (stereo unspecified)
- inhibition [3]: inactive
- inhibition [4]: inactive

Compound: COc1ccc(Nc2ccccc2NC(=O)c2ccc(O)nc2)cc1
- inhibition [3]: inactive
- inhibition [4]: inactive

Compound: CC(C)(C)C(=O)N(CCCCCCN1C[C@H](O)[C@@H](O)[C@H](O)[C@H]1CO)C1CCCCCC1
- inhibition [3]: inactive
- inhibition [4]: inactive

Compound: CC(C)(C)n1nc(Cc2cccc3ccccc23)c2c(N)ncnc21
- inhibition [3]: inactive
- inhibition [4]: inactive

Compound: CS(=O)(=O)c1cccc(-c2cnc3[nH]cc(-c4ccc(CCC(=O)O)cc4)c3c2)c1
- inhibition [3]: inactive
- inhibition [4]: inactive

Compound: C[C@]1(O)C[C@@H](c2nc(-c3ccc4ccc(-c5ccccc5)nc4c3)c3c(N)nccn32)C1
- inhibition [3]: inactive
- inhibition [4]: inactive

Compound: Cc1ccc2nc(C)c(-c3ccn(Cc4ccccc4)n3)n2c1
- inhibition [3]: inactive
- inhibition [4]: inactive

Compound: Cc1ccc2[nH]c3c(NCCN(C)C)ncnc3c2c1
- inhibition [3]: inactive
- inhibition [4]: inactive

Compound: c1ccc(-c2[nH]c3ccccc3c2C(c2ccccn2)N2CCCC2)cc1 (stereo unspecified)
- inhibition [3]: inactive
- inhibition [4]: inactive

Compound: O=C(c1ccc(F)cc1)N(CCNc1ccccc1)c1ccccc1
- inhibition [3]: inactive
- inhibition [4]: inactive

Compound: NC(=O)c1cc(Br)ccc1OCCOc1ccccc1
- inhibition [3]: inactive
- inhibition [4]: inactive

Compound: C[C@H]1c2cccc(O)c2C(=O)C2=C(O)[C@]3(O)C(=O)C(C(N)=O)=C(O)[C@@H](N(C)C)[C@@H]3[C@@H](O)[C@@H]21
- inhibition [3]: inactive
- inhibition [4]: inactive

Compound: CC(C)(C)CN1C(=O)C(c2ccccc2)(c2ccccc2)N=C1N
- inhibition [3]: inactive
- inhibition [4]: inactive

Reference: ChEMBL document CHEMBL3987221, “The Australian National University Dept Of Immunology Pathogen Box Compounds Screened” (2018)
